Measured values published in patent US5444064A, “Method of treating gastrointestinal malignancies” (Montefiore Medical Center, priority 1989, dated 1995).

What was measured:
SW480 cells = assay: Cytokinetic studies (cell cycle distribution by flow cytometry), SW480; format: cell-based, human
HT-29 cells = assay: Cytokinetic studies (cell cycle distribution by flow cytometry), HT-29; format: cell-based, human
[1] = test system: disseminated colorectal cancer; conditions: cited from earlier work
[2] = 5-fluorouracil 50-500 uM, 24 hour incubation

O=c1[nH]cc(F)c(=O)[nH]1 [5-fluorouracil]
depletion of G2M (SW480 cells; [2]): nearly complete depletion of G2M
effect on cell cycle versus HT-29 (SW480 cells; 5-fluorouracil and alpha-2a-interferon alone or in combination, data not shown): qualitatively identical effects
prolongation of the block in G0/G1 (SW480 cells; data not shown): 24 h
depletion of G2M (HT-29 cells; [2]): nearly complete depletion of G2M
time to depletion of G2M compartment (HT-29 cells; time course, from start of incubation): ≤ 7 h
completeness and duration of response ([1]; human, in vivo): rarely respond completely and the duration of the response is generally short
remissions ([1]; patients with disseminated colorectal cancer): 15-35%
median survival ([1]; versus untreated controls): no better than that of untreated controls
